According to PubChem BioAssay AID2060508 (Molecular Pharmacology Branch, DTP, NCI, 2025):

System: 454973-116-R2-J3-PDC spheroids, viability, % test/control
Test: Anticancer human tumor 454973-116-R2-J3-PDC patient-derived pancreatic carcinoma cell line growth inhibition [GQUAD]
Details: spheroids with HUVEC and MSC; for IC50: curve of first compound; for viability, T/C: stronger effect = lower value; active = viability on the fitted dose curve at most 10% of control; inactive = the rest
Summary of the method: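 Tumor cells were grown as complex spheroids with HUVEC endothelial cells and mesenchymal stem cells as stroma. G-quadruplex stabilizers were combined with targeted agents over half-log dilutions from near the clinical Cmax, or from 10 microM.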

[1] = second compound 0.0316 µM, first compound 0.0316 µM
[2] = second compound 0.0316 µM, first compound 0.1 µM
[3] = second compound 0.0316 µM, first compound 0.316 µM
[4] = second compound 0.0316 µM, first compound 1 µM
[5] = second compound 0.0316 µM, first compound 3.16 µM
[6] = second compound 0.0316 µM, first compound 10 µM
[7] = second compound 0.1 µM, first compound 0.0316 µM
[8] = second compound 0.1 µM, first compound 0.1 µM
[9] = second compound 0.1 µM, first compound 0.316 µM
[10] = second compound 0.1 µM, first compound 1 µM
[11] = second compound 0.1 µM, first compound 3.16 µM
[12] = second compound 0.1 µM, first compound 10 µM
[13] = second compound 0.316 µM, first compound 0.0316 µM
[14] = second compound 0.316 µM, first compound 0.1 µM
[15] = second compound 0.316 µM, first compound 0.316 µM
[16] = second compound 0.316 µM, first compound 1 µM
[17] = second compound 0.316 µM, first compound 3.16 µM
[18] = second compound 0.316 µM, first compound 10 µM
[19] = second compound 1 µM, first compound 0.0316 µM
[20] = second compound 1 µM, first compound 0.1 µM
[21] = second compound 1 µM, first compound 0.316 µM
[22] = second compound 1 µM, first compound 1 µM
[23] = second compound 1 µM, first compound 3.16 µM
[24] = second compound 1 µM, first compound 10 µM
[25] = second compound 3.16 µM, first compound 0.0316 µM
[26] = second compound 3.16 µM, first compound 0.1 µM
[27] = second compound 3.16 µM, first compound 0.316 µM
[28] = second compound 3.16 µM, first compound 1 µM
[29] = second compound 3.16 µM, first compound 3.16 µM
[30] = second compound 3.16 µM, first compound 10 µM
[31] = second compound 10 µM, first compound 0.0316 µM
[32] = second compound 10 µM, first compound 0.1 µM
[33] = second compound 10 µM, first compound 0.316 µM
[34] = second compound 10 µM, first compound 1 µM
[35] = second compound 10 µM, first compound 3.16 µM
[36] = second compound 10 µM, first compound 10 µM
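Note: spheroids exposed to compounds for seven days.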
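Throughout, for viability, T/C: 100% = DMSO vehicle control viability.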

COc1ncnc(C2CC2)c1-c1ncc2cnn(Cc3ccc(-c4nc(C(F)(F)F)cn4C(C)C)cc3)c2n1 + Cc1[nH]c2ccc(F)cc2c1-c1nc2c3cccnc3c3ncccc3c2[nH]1
> 10000 nM: IC50 (second compound 0.0316 µM) | IC50 (second compound 0.1 µM) | IC50 (second compound 0.316 µM) | IC50 (second compound 1 µM) | IC50 (second compound 3.16 µM) | IC50 (second compound 10 µM)
inactive: viability, T/C [1] 112% | viability, T/C [2] 100% | viability, T/C [3] 110% | viability, T/C [4] 110% | viability, T/C [5] 96% | viability, T/C [6] 102% | viability, T/C [7] 126% | viability, T/C [8] 102% | viability, T/C [9] 107% | viability, T/C [10] 105% | viability, T/C [11] 92.9% | viability, T/C [12] 100% | viability, T/C [13] 109% | viability, T/C [14] 111% | viability, T/C [15] 106% | viability, T/C [16] 120% | viability, T/C [17] 105% | viability, T/C [18] 98.6% | viability, T/C [19] 103% | viability, T/C [20] 99.3% | viability, T/C [21] 105% | viability, T/C [22] 106% | viability, T/C [23] 92.3% | viability, T/C [24] 98.9% | viability, T/C [25] 99.2% | viability, T/C [26] 97.3% | viability, T/C [27] 99.4% | viability, T/C [28] 91.5% | viability, T/C [29] 96.9% | viability, T/C [30] 89.8% | viability, T/C [31] 102% | viability, T/C [32] 92.9% | viability, T/C [33] 96.7% | viability, T/C [34] 86.8% | viability, T/C [35] 83.5% | viability, T/C [36] 95.1%

COc1cccc2c1C(=O)c1c(O)c3c(c(O)c1C2=O)CC(O)(C(=O)CO)CC3OC1CC(N)C(O)C(C)O1 (stereo not given) + Cc1[nH]c2ccc(F)cc2c1-c1nc2c3cccnc3c3ncccc3c2[nH]1
143 nM: IC50 (second compound 1 µM)
158 nM: IC50 (second compound 10 µM)
166 nM: IC50 (second compound 0.0316 µM)
154 nM: IC50 (second compound 0.316 µM)
188 nM: IC50 (second compound 0.1 µM)
active: viability, T/C [5] 11.4% | viability, T/C [6] 0.63% | viability, T/C [11] 11% | viability, T/C [12] 0.58% | viability, T/C [18] 0.44% | viability, T/C [23] 11.1% | viability, T/C [24] 0.62% | viability, T/C [30] 0.52% | viability, T/C [35] 11.5% | viability, T/C [36] 0.75%
145 nM: IC50 (second compound 3.16 µM)
inactive: viability, T/C [1] 106% | viability, T/C [2] 63.1% | viability, T/C [3] 30.4% | viability, T/C [4] 22.6% | viability, T/C [7] 97.8% | viability, T/C [8] 69.8% | viability, T/C [9] 27.2% | viability, T/C [10] 28.9% | viability, T/C [13] 96.5% | viability, T/C [14] 59.7% | viability, T/C [15] 27.6% | viability, T/C [16] 28.2% | viability, T/C [17] 11.8% | viability, T/C [19] 90.6% | viability, T/C [20] 61.4% | viability, T/C [21] 24.3% | viability, T/C [22] 26.2% | viability, T/C [25] 93.1% | viability, T/C [26] 59.6% | viability, T/C [27] 27.6% | viability, T/C [28] 24.4% | viability, T/C [29] 14.8% | viability, T/C [31] 81.9% | viability, T/C [32] 64.7% | viability, T/C [33] 27% | viability, T/C [34] 27.1%

C#Cc1c(F)ccc2cc(O)cc(-c3ncc4c(N5CC6CCC(C5)N6)nc(OCC56CCCN5CC(F)C6)nc4c3F)c12 (stereo not given) + Cc1cnc(CNC(=O)c2c(=O)c3ccc(N4CCCN(C)CC4)nc3n3c2sc2ccccc23)cn1
inactive: viability, T/C [1] 45.9% | viability, T/C [2] 40.8% | viability, T/C [3] 28.3% | viability, T/C [4] 23.2% | viability, T/C [5] 20.3% | viability, T/C [6] 17.8% | viability, T/C [7] 41.9% | viability, T/C [8] 33.3% | viability, T/C [9] 24% | viability, T/C [10] 20.1% | viability, T/C [11] 17.1% | viability, T/C [12] 16.1% | viability, T/C [13] 41.7% | viability, T/C [14] 24.4% | viability, T/C [15] 17.4% | viability, T/C [16] 17.1% | viability, T/C [17] 14.3% | viability, T/C [18] 11.4% | viability, T/C [19] 36.6% | viability, T/C [20] 24.2% | viability, T/C [21] 19% | viability, T/C [22] 16.5% | viability, T/C [23] 13.2% | viability, T/C [24] 10.7% | viability, T/C [25] 36.5% | viability, T/C [26] 22.6% | viability, T/C [27] 19.3% | viability, T/C [28] 12.6%
active: viability, T/C [29] 9.16% | viability, T/C [30] 4.35% | viability, T/C [31] 0.16% | viability, T/C [32] 0.43% | viability, T/C [33] 0.47% | viability, T/C [34] 0.12% | viability, T/C [35] 0.27% | viability, T/C [36] 0.18%
< 31.6 nM: IC50 (second compound 0.0316 µM) | IC50 (second compound 0.1 µM) | IC50 (second compound 0.316 µM) | IC50 (second compound 1 µM) | IC50 (second compound 3.16 µM) | IC50 (second compound 10 µM)

CC(=O)O[C@H]1C(=O)[C@@]2(C)[C@H]([C@H](OC(=O)c3ccccc3)[C@]3(O)C[C@H](OC(=O)[C@H](O)[C@@H](NC(=O)c4ccccc4)c4ccccc4)C(C)=C1C3(C)C)[C@]1(OC(C)=O)CO[C@@H]1C[C@@H]2O + Cc1[nH]c2ccc(F)cc2c1-c1nc2c3cccnc3c3ncccc3c2[nH]1
< 31.6 nM: IC50 (second compound 0.0316 µM) | IC50 (second compound 0.1 µM) | IC50 (second compound 0.316 µM) | IC50 (second compound 1 µM) | IC50 (second compound 3.16 µM) | IC50 (second compound 10 µM)
active: viability, T/C [2] 8.26% | viability, T/C [3] 7.28% | viability, T/C [4] 6.32% | viability, T/C [5] 7.13% | viability, T/C [6] 7.83% | viability, T/C [8] 9.64% | viability, T/C [9] 7.87% | viability, T/C [10] 6.95% | viability, T/C [11] 7.87% | viability, T/C [12] 8.54% | viability, T/C [14] 9.07% | viability, T/C [15] 5.61% | viability, T/C [16] 5.86% | viability, T/C [17] 5.85% | viability, T/C [18] 9.29% | viability, T/C [20] 7.44% | viability, T/C [21] 6.58% | viability, T/C [22] 5.96% | viability, T/C [23] 7.37% | viability, T/C [24] 10.1% | viability, T/C [26] 8.56% | viability, T/C [27] 7.65% | viability, T/C [28] 6.65% | viability, T/C [29] 6.16% | viability, T/C [30] 9.4% | viability, T/C [32] 8.79% | viability, T/C [33] 7.16% | viability, T/C [34] 7.79% | viability, T/C [35] 7.84% | viability, T/C [36] 7.93%
inactive: viability, T/C [1] 15.2% | viability, T/C [7] 14.5% | viability, T/C [13] 14.6% | viability, T/C [19] 12.3% | viability, T/C [25] 11.1% | viability, T/C [31] 12.5%

CCc1c2c(nc3ccc(O)cc13)-c1cc3c(c(=O)n1C2)COC(=O)[C@]3(O)CC + Cc1[nH]c2ccc(F)cc2c1-c1nc2c3cccnc3c3ncccc3c2[nH]1
1.53 nM: IC50 (second compound 0.0316 µM)
1.67 nM: IC50 (second compound 0.316 µM)
1.34 nM: IC50 (second compound 3.16 µM)
1.62 nM: IC50 (second compound 1 µM)
active: viability, T/C (second compound 0.0316 µM, first compound 0.0999 µM) 7.97% | viability, T/C [3] 3.8% | viability, T/C (second compound 0.1 µM, first compound 0.0999 µM) 8.7% | viability, T/C [9] 3.86% | viability, T/C (second compound 0.316 µM, first compound 0.0999 µM) 7.62% | viability, T/C [15] 3.05% | viability, T/C (second compound 1 µM, first compound 0.0999 µM) 7.87% | viability, T/C [21] 5.39% | viability, T/C [27] 5.63% | viability, T/C (second compound 10 µM, first compound 0.0999 µM) 8.05% | viability, T/C [33] 3.9%
1.54 nM: IC50 (second compound 10 µM)
inactive: viability, T/C (second compound 0.0316 µM, first compound 0.000999 µM) 62.5% | viability, T/C (second compound 0.0316 µM, first compound 0.00316 µM) 26.2% | viability, T/C (second compound 0.0316 µM, first compound 0.00999 µM) 21.5% | viability, T/C [1] 14.5% | viability, T/C (second compound 0.1 µM, first compound 0.000999 µM) 63.1% | viability, T/C (second compound 0.1 µM, first compound 0.00316 µM) 21.8% | viability, T/C (second compound 0.1 µM, first compound 0.00999 µM) 19.9% | viability, T/C [7] 13% | viability, T/C (second compound 0.316 µM, first compound 0.000999 µM) 67.5% | viability, T/C (second compound 0.316 µM, first compound 0.00316 µM) 25.7% | viability, T/C (second compound 0.316 µM, first compound 0.00999 µM) 19.2% | viability, T/C [13] 14.6% | viability, T/C (second compound 1 µM, first compound 0.000999 µM) 67.3% | viability, T/C (second compound 1 µM, first compound 0.00316 µM) 22.5% | viability, T/C (second compound 1 µM, first compound 0.00999 µM) 22% | viability, T/C [19] 13.3% | viability, T/C (second compound 3.16 µM, first compound 0.000999 µM) 59.1% | viability, T/C (second compound 3.16 µM, first compound 0.00316 µM) 21.1% | viability, T/C (second compound 3.16 µM, first compound 0.00999 µM) 21.8% | viability, T/C [25] 15.2% | viability, T/C (second compound 3.16 µM, first compound 0.0999 µM) 8.28% | viability, T/C (second compound 10 µM, first compound 0.000999 µM) 63.6% | viability, T/C (second compound 10 µM, first compound 0.00316 µM) 25.6% | viability, T/C (second compound 10 µM, first compound 0.00999 µM) 18.2% | viability, T/C [31] 14.2%
1.47 nM: IC50 (second compound 0.1 µM)
